In patent US20220143042A1, “FUSED GLYCOSIDASE INHIBITORS” (Asceneuron SA, priority 2019, published 2022) one finds IC50 data, which are given here for 16 compounds.

The test deals with T1, His-Tagged hOGA (Homo sapiens, UniProt O60502).
T1 sequence (O60502 1-916): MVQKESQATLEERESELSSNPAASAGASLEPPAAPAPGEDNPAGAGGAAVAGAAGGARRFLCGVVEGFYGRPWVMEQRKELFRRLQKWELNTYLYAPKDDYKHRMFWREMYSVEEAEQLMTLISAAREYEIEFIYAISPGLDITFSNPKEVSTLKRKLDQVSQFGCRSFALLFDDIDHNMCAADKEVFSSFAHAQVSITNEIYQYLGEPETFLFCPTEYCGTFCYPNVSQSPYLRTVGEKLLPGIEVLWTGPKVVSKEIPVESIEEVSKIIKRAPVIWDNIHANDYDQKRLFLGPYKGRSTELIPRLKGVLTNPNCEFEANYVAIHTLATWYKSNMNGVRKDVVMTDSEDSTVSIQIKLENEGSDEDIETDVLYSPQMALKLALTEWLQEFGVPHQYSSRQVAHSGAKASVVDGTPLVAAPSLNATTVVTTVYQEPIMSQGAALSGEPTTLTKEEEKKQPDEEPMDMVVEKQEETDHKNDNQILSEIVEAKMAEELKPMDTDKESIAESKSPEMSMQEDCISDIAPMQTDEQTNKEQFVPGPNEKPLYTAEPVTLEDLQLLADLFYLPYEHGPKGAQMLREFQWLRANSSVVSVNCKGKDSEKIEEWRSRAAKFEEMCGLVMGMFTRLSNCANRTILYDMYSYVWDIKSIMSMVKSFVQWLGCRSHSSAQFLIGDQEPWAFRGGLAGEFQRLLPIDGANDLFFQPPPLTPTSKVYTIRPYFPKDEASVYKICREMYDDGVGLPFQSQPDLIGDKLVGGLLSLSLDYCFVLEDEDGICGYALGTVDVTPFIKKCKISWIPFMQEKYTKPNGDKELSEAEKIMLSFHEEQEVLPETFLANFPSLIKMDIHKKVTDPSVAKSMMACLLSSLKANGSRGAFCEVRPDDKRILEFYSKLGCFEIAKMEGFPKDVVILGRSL
Put plainly: Human O-GlcNAcase enzyme inhibition assay. The conditions noted are these: OGA enzyme inhibition assay; FL-GlcNAc substrate, 60 min at room temperature, pH 6.5. Format: biochemical. Here is the method: EXAMPLE B01: HUMAN O-GLCNACASE ENZYME INHIBITION ASSAY
5 μl of the appropriate concentration of a solution of inhibitor in Mcllvaine's Buffer (pH 6.5) in 2% DMSO (for a dose response curve calculation) is added into each well of a 384-well plate (Greiner, 781900). Then, 20 nM of His-Tagged hOGA and 10 μM of FL-GlcNAc (Fluorescein mono-beta-D-(2-deoxy-2-N-acetyl) glucopyranoside; Marker Gene Technologies Inc, M1485) were added to the 384-well plate for a final volume of 20 μl. After incubation for 60 min at room temperature, the reaction was terminated by the addition of 10 μL of stop buffer (200 mM glycine, pH 10.75). The level of fluorescence (λexc 485 nm; (λemm 520 nm) was read on a PHERAstar machine. The amount of fluorescence measured was plotted against the concentration of inhibitor to produce a sigmoidal dose response curve to calculate an IC50. All individual data was corrected by subtraction of the background (Thiamet 3 uM=100% inhibition) whilst 0.5% DMSO was considered as the control value (no inhibition).
The IC50 is the midpoint of a concentration-inhibition curve. Low values mean inhibition by little substance, high ones a need for much substance. `CC(c1ccc2scnc2c1)N1CCCc2nn(C)cc2C1` (racemic) [Example 165, 5-(1-(2-METHYL-2,6,7,8-TETRAHYDROPYRAZOLO[4,3-C]AZEPIN-5(4H)-YL)ETHYL)BENZO[D]THIAZOLE] registered an IC50 of 200 to 1000 nM.

`CC(c1ccc2scnc2c1)N1CCc2cn(C)nc2CC1` (racemic) [Example 1, 5-(1-(2-METHYL-4,5,7,8-TETRAHYDROPYRAZOLO[3,4-D]AZEPIN-6(2H)-YL)ETHYL)BENZO[D]THIAZOLE] gave an IC50 of under 50 nM. Next, `CC(c1ccc2scnc2c1)N1CCc2nc[nH]c2CC1` (racemic) [Example 161]: 50 to 200 nM; `CC(c1ccc2scnc2c1)N1CCc2c([Si](C)(C)C)nn(C)c2CC1` (racemic) [Example 48, 5-(1-(1-METHYL-3-(TRIMETHYLSILYL)-4,5,7,8-TETRAHYDROPYRAZOLO[3,4-D]AZEPIN-6(1H)-YL)ETHYL)BENZO[D]THIAZOLE]: under 50 nM.

In the case of `CC(=O)Nc1ncc(CN2CCc3nc(C)sc3CC2)s1` (racemic) [Example 26, N-(5-((2-METHYL-4,5,7,8-TETRAHYDRO-6H-THIAZOLO[4,5-D]AZEPIN-6-YL)METHYL)THIAZOL-2-YL)ACETAMIDE], the IC50 is under 50 nM. In turn, `CC(=O)Nc1nc2c(s1)CCN(C(C)c1ccc3scnc3c1)CC2` (racemic) [Example 16] yielded a concentration for half-maximal inhibition (IC50) of under 50 nM.

`Cc1nc2c(s1)CCN(C(C)c1ccc3c(c1)OCC3)CC2` (racemic) [Example 20, 6-(1-(2,3-DIHYDROBENZOFURAN-6-YL)ETHYL)-2-METHYL-5,6,7,8-TETRAHYDRO-4H-THIAZOLO[4,5-D]AZEPINE] came in with an IC50 of under 50 nM.

`CC(c1ccc2scnc2c1)N1CCc2c(-c3ccccc3)nn(C)c2CC1` (racemic) [Example 47, 5-(1-(1-METHYL-3-PHENYL-4,5,7,8-TETRAHYDROPYRAZOLO[3,4-D]AZEPIN-6(1H)-YL)ETHYL)BENZO[D]THIAZOLE] returned an IC50 of under 50 nM. Next, `Cc1nc2c(s1)CCN(C(C)c1ccc3scnc3c1)CC2` (racemic) [Example 14, 6-(1-(BENZO[D]THIAZOL-5-YL)ETHYL)-2-METHYL-5,6,7,8-TETRAHYDRO-4H-THIAZOLO[4,5-D]AZEPINE]: under 50 nM. Next, `CC(=O)Nc1ncc(CN2CCc3nc(N)sc3CC2)s1` (racemic) [Example 151, N-(5-((2-AMINO-4,5,7,8-TETRAHYDRO-6H-THIAZOLO[4,5-D]AZEPIN-6-YL)METHYL)THIAZOL-2-YL)ACETAMIDE]: 50 to 200 nM. With `CC(=O)Nc1ncc(CN2CCc3cn(C)nc3CC2)s1` (racemic) [Example 23, N-(5-((2-METHYL-4,5,7,8-TETRAHYDROPYRAZOLO[3,4-D]AZEPIN-6(2H)-YL)METHYL)THIAZOL-2-YL)ACETAMIDE], the IC50 is under 50 nM.

Regarding `CC(=O)Nc1nc2c(s1)CCN(C(C)c1ccc3scnc3c1)CC2` (single isomer, unassigned) [Example 163], the 50% inhibitory concentration (IC50) fell in the range of 200 to 1000 nM. In turn, `CC(=O)Nc1ncc(CN2CCc3nncn3CC2)s1` (racemic) [Example 154] registered a half-maximal inhibitory concentration (IC50) of under 50 nM. With `CC(=O)Nc1nc2c(s1)CCN(C(C)c1ccc3scnc3c1)CC2` (single isomer, unassigned) [Example 162], the IC50 was under 50 nM. Next, `CC(=O)Nc1nc2c(s1)CN(C(C)c1ccc3scnc3c1)CCC2` (racemic) [Example 152]: 200 to 1000 nM; `CC(c1ccc2scnc2c1)N1CCc2nn(C)c(-c3ccccc3)c2CC1` (racemic) [Example 46, 5-(1-(2-METHYL-3-PHENYL-4,5,7,8-TETRAHYDROPYRAZOLO[3,4-D]AZEPIN-6(2H)-YL)ETHYL)BENZO[D]THIAZOLE]: under 50 nM.
